According to patent publication US8962842B2, “2-pyridone antimicrobial compositions” (priority 2010, dated 2015):
Read-outs that look alike come from different tables or passages of the source.

Legend:
[1] = system: Streptococcus pyogenes (4 strains); assay: MIC range, broader panel of Quotient Bioresearch strains (Table 3); settings: for MIC50: read-out: MIC Range Median, Streptococcus pyogenes (4 strains)
[2] = system: Group C Streptococcus (4 strains); assay: as above; settings: for MIC50: read-out: MIC Range Median, Group C Streptococcus (4 strains)
[3] = system: Klebsiella pneumonia (4 strains); assay: MIC range, broader panel of Quotient Bioresearch strains (Table 4); assay type: cell-based; settings: Klebsiella pneumoniae; for MIC50: read-out: MIC Range Median, Klebsiella pneumonia (4 strains)
[4] = system: Streptococcus pneumonia (5 strains); assay: MIC range, broader panel of Quotient Bioresearch strains (Table 3); settings: Streptococcus pneumoniae; for MIC50: read-out: MIC Range Median, Streptococcus pneumonia (5 strains)
[5] = system: Enterococcus faecalis (5 strains); assay: as above; settings: for MIC50: read-out: MIC Range Median, Enterococcus faecalis (5 strains)
[6] = system: Acinetobacter baumannii (12 strains); assay: MIC range, broader panel of Quotient Bioresearch strains (Table 4); assay type: cell-based; settings: for MIC50: read-out: MIC Range Median, Acinetobacter baumannii (12 strains)
[7] = system: Enterococcus faecium (3 strains); assay: MIC range, broader panel of Quotient Bioresearch strains (Table 3); settings: for MIC50: read-out: MIC Range Median, Enterococcus faecium (3 strains)
[8] = system: Haemophilus influenza (5 strains); assay: MIC range, broader panel of Quotient Bioresearch strains (Table 4); assay type: cell-based, Haemophilus influenzae; settings: for MIC50: 16 h, Median of the strain panel
[9] = system: Pseudomonas aeruginosa (12 strains); assay: as above; assay type: cell-based; settings: for MIC50: read-out: MIC Range Median, Pseudomonas aeruginosa (12 strains)
[10] = system: Burkholderia cepacia (5 strains); assay: as above; assay type: cell-based; settings: for MIC50: read-out: MIC Range Median, Burkholderia cepacia (5 strains)
[11] = system: Staphylococcus aureus (16 strains); assay: MIC range, broader panel of Quotient Bioresearch strains (Table 3); settings: for MIC50: read-out: MIC Range Median, Staphylococcus aureus (16 strains)
[12] = system: Escherichia coli (6 strains); assay: MIC range, broader panel of Quotient Bioresearch strains (Table 4); assay type: cell-based; settings: for MIC50: read-out: MIC Range Median, Escherichia coli (6 strains)
[13] = Mouse pharmacokinetics, intravenous or oral 10 mg/kg (Table 9); assay type: in vivo; settings: mice, plasma; for half-life: read-out: Elimination Half life (converted); for bioavailability: p.o. vs i.v.
Method: Groups of 21 mice were treated with select examples at 10 mg/kg. Mice were treated either intravenously or orally (by gavage). At predetermined time points (0.25, 0.5, 1, 2, 4, 8 and 24 hours), 3 mice were sacrificed and blood samples drawn by cardiac puncture. Plasma was obtained by centrifugation and stored at −80° C. Plasma samples were analyzed by LC-MS for remaining amounts of compounds.

[14] = read-out: MIC Range High, Streptococcus pyogenes (4 strains)
[15] = read-out: MIC Range Low, Streptococcus pyogenes (4 strains)
[16] = read-out: MIC Range High, Group C Streptococcus (4 strains)
[17] = read-out: MIC Range Low, Group C Streptococcus (4 strains)
[18] = read-out: MIC Range High, Klebsiella pneumonia (4 strains)
[19] = read-out: MIC Range Low, Klebsiella pneumonia (4 strains)
[20] = read-out: MIC Range High, Streptococcus pneumonia (5 strains)
[21] = read-out: MIC Range Low, Streptococcus pneumonia (5 strains)
[22] = read-out: MIC Range High, Enterococcus faecalis (5 strains)
[23] = read-out: MIC Range Low, Enterococcus faecalis (5 strains)
[24] = read-out: MIC Range High, Acinetobacter baumannii (12 strains)
[25] = read-out: MIC Range Low, Acinetobacter baumannii (12 strains)
[26] = read-out: MIC Range High, Enterococcus faecium (3 strains)
[27] = read-out: MIC Range Low, Enterococcus faecium (3 strains)
[28] = High of the strain panel, read-out: MIC Range High, Haemophilus influenza (5 strains)
[29] = Low of the strain panel, read-out: MIC Range Low, Haemophilus influenza (5 strains)
[30] = read-out: MIC Range High, Pseudomonas aeruginosa (12 strains)
[31] = read-out: MIC Range Low, Pseudomonas aeruginosa (12 strains)
[32] = read-out: MIC Range High, Burkholderia cepacia (5 strains)
[33] = read-out: MIC Range Low, Burkholderia cepacia (5 strains)
[34] = read-out: MIC Range High, Staphylococcus aureus (16 strains)
[35] = read-out: MIC Range Low, Staphylococcus aureus (16 strains)
[36] = read-out: MIC Range High, Escherichia coli (6 strains)
[37] = read-out: MIC Range Low, Escherichia coli (6 strains)

Cc1c(-c2ccncc2)ccn2c(=O)c(C(=O)[O-])cc(C3CC3)c12.[K+] [Example 16 K salt, potassium 1-cyclopropyl-9-methyl-4-oxo-8-(pyridin-4-yl)-4H-quinolizine-3-carboxylate]
MIC [1, 14]: 1 µg/mL
MIC [1, 15]: 0.25 µg/mL
MIC50 [1]: 0.375 µg/mL
MIC [2, 16]: 0.5 µg/mL
MIC [2, 17]: 0.25 µg/mL
MIC50 [2]: 0.25 µg/mL
MIC [3, 18]: > 32 µg/mL
MIC [3, 19]: 0.12 µg/mL
MIC50 [3]: 16 µg/mL
MIC [4, 20]: 1 µg/mL
MIC [4, 21]: 0.5 µg/mL
MIC50 [4]: 0.5 µg/mL
MIC [5, 22]: 8 µg/mL
MIC [5, 23]: 0.25 µg/mL
MIC50 [5]: 0.25 µg/mL
MIC [6, 24]: > 32 µg/mL
MIC [6, 25]: 0.12 µg/mL
MIC50 [6]: 16 µg/mL
MIC [7, 26]: 16 µg/mL
MIC [7, 27]: 1 µg/mL
MIC50 [7]: 8 µg/mL
MIC50 [8]: ≤ 0.015 µg/mL
MIC [8, 28]: ≤ 0.015 µg/mL
MIC [8, 29]: ≤ 0.015 µg/mL
MIC [9, 30]: > 32 µg/mL
MIC [9, 31]: 2 µg/mL
MIC50 [9]: 16 µg/mL
MIC [10, 32]: 0.5 µg/mL
MIC [10, 33]: 0.25 µg/mL
MIC50 [10]: 0.25 µg/mL
MIC [11, 34]: 1 µg/mL
MIC [11, 35]: ≤ 0.015 µg/mL
MIC50 [11]: 1 µg/mL
MIC [12, 36]: > 32 µg/mL
MIC [12, 37]: 0.03 µg/mL
MIC50 [12]: > 32 µg/mL

Cc1c(-c2ccc(CN)cc2)ccn2c(=O)c(C(=O)[O-])cc(C3CC3)c12.[K+] [Example 31 K salt, potassium 8-(4-(amino-methyl)-phenyl)-1-cyclopropyl-9-methyl-4-oxo-4H-quinolizine-3-carboxylate]
MIC [1, 14]: 0.25 µg/mL
MIC [1, 15]: 0.06 µg/mL
MIC50 [1]: 0.09 µg/mL
MIC [2, 16]: 0.12 µg/mL
MIC [2, 17]: 0.06 µg/mL
MIC50 [2]: 0.09 µg/mL
MIC [3, 18]: 32 µg/mL
MIC [3, 19]: 0.03 µg/mL
MIC50 [3]: 9 µg/mL
MIC [4, 20]: 0.25 µg/mL
MIC [4, 21]: 0.06 µg/mL
MIC50 [4]: 0.12 µg/mL
MIC [5, 22]: 4 µg/mL
MIC [5, 23]: 0.06 µg/mL
MIC50 [5]: 0.12 µg/mL
MIC [6, 24]: > 32 µg/mL
MIC [6, 25]: 0.03 µg/mL
MIC50 [6]: 8 µg/mL
MIC [7, 26]: 8 µg/mL
MIC [7, 27]: 0.5 µg/mL
MIC50 [7]: 4 µg/mL
MIC50 [8]: ≤ 0.015 µg/mL
MIC [8, 28]: ≤ 0.015 µg/mL
MIC [8, 29]: ≤ 0.015 µg/mL
MIC [9, 30]: > 32 µg/mL
MIC50 [9]: 8 µg/mL
MIC [10, 32]: 1 µg/mL
MIC [10, 33]: 0.12 µg/mL
MIC50 [10]: 0.5 µg/mL
MIC [11, 34]: 2 µg/mL
MIC [11, 35]: ≤ 0.015 µg/mL
MIC50 [11]: 0.5 µg/mL
MIC [12, 36]: 32 µg/mL
MIC [12, 37]: ≤ 0.015 µg/mL
MIC50 [12]: 8 µg/mL

Cc1c(-c2ccc(C(N)=O)cc2)c(F)cn2c(=O)c(C(=O)[O-])cc(C3CC3)c12.[K+] [Example 6 K salt, potassium 8-(4-carbamoyl-phenyl)-1-cyclopropyl-7-fluoro-9-methyl-4-oxo-4H-quinolizine-3-carboxylate]
MIC [1, 14]: 0.25 µg/mL
MIC [1, 15]: 0.12 µg/mL
MIC50 [1]: 0.12 µg/mL
MIC [2, 16]: 0.12 µg/mL
MIC [2, 17]: 0.06 µg/mL
MIC50 [2]: 0.12 µg/mL
MIC [3, 18]: > 32 µg/mL
MIC [3, 19]: 1 µg/mL
MIC50 [3]: > 32 µg/mL
MIC [4, 20]: 0.25 µg/mL
MIC [4, 21]: 0.25 µg/mL
MIC50 [4]: 0.25 µg/mL
MIC [5, 22]: 4 µg/mL
MIC [5, 23]: 0.12 µg/mL
MIC50 [5]: 0.25 µg/mL
MIC [6, 24]: > 32 µg/mL
MIC [6, 25]: 1 µg/mL
MIC50 [6]: > 32 µg/mL
MIC [7, 26]: 8 µg/mL
MIC [7, 27]: 1 µg/mL
MIC50 [7]: 2 µg/mL
MIC50 [8]: 0.03 µg/mL
MIC [8, 28]: 0.06 µg/mL
MIC [8, 29]: 0.03 µg/mL
MIC [9, 30]: > 32 µg/mL
MIC [9, 31]: 8 µg/mL
MIC50 [9]: > 32 µg/mL
MIC [10, 32]: 4 µg/mL
MIC [10, 33]: 1 µg/mL
MIC50 [10]: 2 µg/mL
MIC [11, 34]: 1 µg/mL
MIC [11, 35]: 0.03 µg/mL
MIC50 [11]: 0.5 µg/mL
MIC [12, 36]: > 32 µg/mL
MIC [12, 37]: 0.25 µg/mL
MIC50 [12]: > 32 µg/mL

Cc1c(-c2ccc(N)cc2)c(F)cn2c(=O)c(C(=O)[O-])cc(C3CC3)c12.[K+] [Example 5 K salt, potassium 8-(4-amino-phenyl)-1-cyclopropyl-7-fluoro-9-methyl-4-oxo-4H-quinolizine-3-carboxylate]
MIC [1, 14]: 0.5 µg/mL
MIC [1, 15]: 0.12 µg/mL
MIC50 [1]: 0.12 µg/mL
MIC [2, 16]: 0.12 µg/mL
MIC [2, 17]: 0.06 µg/mL
MIC50 [2]: 0.06 µg/mL
MIC [3, 18]: 16 µg/mL
MIC [3, 19]: 0.12 µg/mL
MIC50 [3]: 10 µg/mL
MIC [4, 20]: 0.25 µg/mL
MIC [4, 21]: 0.12 µg/mL
MIC50 [4]: 0.12 µg/mL
MIC [5, 22]: 1 µg/mL
MIC [5, 23]: 0.03 µg/mL
MIC50 [5]: 0.06 µg/mL
MIC [6, 24]: 16 µg/mL
MIC [6, 25]: 0.06 µg/mL
MIC50 [6]: 6 µg/mL
MIC [7, 26]: 4 µg/mL
MIC [7, 27]: 0.25 µg/mL
MIC50 [7]: 1 µg/mL
MIC50 [8]: ≤ 0.015 µg/mL
MIC [8, 28]: ≤ 0.015 µg/mL
MIC [8, 29]: ≤ 0.015 µg/mL
MIC [9, 30]: 16 µg/mL
MIC [9, 31]: 1 µg/mL
MIC50 [9]: 4 µg/mL
MIC [10, 32]: 0.5 µg/mL
MIC [10, 33]: 0.12 µg/mL
MIC50 [10]: 0.25 µg/mL
MIC [11, 34]: 0.25 µg/mL
MIC [11, 35]: ≤ 0.015 µg/mL
MIC50 [11]: 0.12 µg/mL
MIC [12, 36]: 16 µg/mL
MIC [12, 37]: 0.03 µg/mL
MIC50 [12]: 8 µg/mL

Cc1c(-c2ccc3[nH]ncc3c2)ccn2c(=O)c(C(=O)[O-])cc(C3CC3)c12.[K+] [Ex. 23 K salt]
half-life ([13]; iv, i.v.): 1.16 h
AUC(0-inf) ([13]; iv): 2040 ng·h/mL
Cmax ([13]; iv): 3430 ng/mL
bioavailability ([13]; po): 85.9%
half-life ([13]; po, p.o.): 0.988 h
AUC(0-inf) ([13]; po): 1750 ng·h/mL
Cmax ([13]; po): 866 ng/mL

Cc1c(-c2ccc(N)c(F)c2)ccn2c(=O)c(C(=O)[O-])cc(C3CC3)c12.[K+] [Ex. 2 K salt]
half-life ([13]; iv, i.v.): 1.48 h
AUC(0-inf) ([13]; iv): 1340 ng·h/mL
Cmax ([13]; iv): 2100 ng/mL
bioavailability ([13]; po): 47.8%
half-life ([13]; po, p.o.): 1.51 h
AUC(0-inf) ([13]; po): 642 ng·h/mL
Cmax ([13]; po): 394 ng/mL

Cc1c(-c2ccc(N)nc2)ccn2c(=O)c(C(=O)[O-])cc(C3CC3)c12.[K+] [Ex. 21 K salt]
half-life ([13]; iv, i.v.): 1.31 h
Cmax ([13]; iv): 467 ng/mL
half-life ([13]; po, p.o.): 2.11 h
AUC(0-inf) ([13]; po): 471 ng·h/mL
Cmax ([13]; po): 242 ng/mL

Cc1c(-c2cc(F)c(N)cc2F)ccn2c(=O)c(C(=O)[O-])cc(C3CC3)c12.[K+] [Ex. 28 K salt]
half-life ([13]; iv, i.v.): 1.07 h
AUC(0-inf) ([13]; iv): 1650 ng·h/mL
Cmax ([13]; iv): 2850 ng/mL
bioavailability ([13]; po): 43%
half-life ([13]; po, p.o.): 3.33 h
AUC(0-inf) ([13]; po): 710 ng·h/mL
Cmax ([13]; po): 227 ng/mL

Cc1c(-c2ccc(O)cc2)ccn2c(=O)c(C(=O)[O-])cc(C3CC3)c12.[K+] [Ex. 46 K salt]
half-life ([13]; iv, i.v.): 1.07 h
AUC(0-inf) ([13]; iv): 474 ng·h/mL
Cmax ([13]; iv): 1060 ng/mL
bioavailability ([13]; po): 82.1%
half-life ([13]; po, p.o.): 4.16 h
AUC(0-inf) ([13]; po): 389 ng·h/mL
Cmax ([13]; po): 156 ng/mL
